From ChEMBL document CHEMBL5042519, “Design and synthesis of marine sesterterpene analogues as novel estrogen receptor α degraders for breast cancer treatment” (Eur J Med Chem, 2022)
Counter-ions that a name gives are not always drawn. Calls of active or inactive are those of the source. The rule behind the calls is not given here.

Assays:
MDA-MB-231 = assay: Antiproliferative activity against human MDA-MB-231 cells assessed as reduction in cell viability after 48 hrs by MTT assay; conditions: MDA-MB-231, 48 h
MCF7 [1] = assay: Antiproliferative activity against human MCF7 cells assessed as reduction in cell viability after 48 hrs by MTT assay; format: functional, cell-based; conditions: MCF7, 48 h
MCF7 [2] = assay: Antiproliferative activity against human MCF7/ADR cells assessed as reduction in cell viability after 48 hrs by MTT assay; format: functional, cell-based; conditions: MCF7, 48 h
[3] = Resistance index, ratio of IC50 for antiproliferative activity against human MCF7/ADR cells to IC50 for antiproliferative activity against human MCF7 cells; format: functional
[4] = Antiproliferative activity against human MCF-10A cells assessed as reduction in cell viability after 48 hrs by MTT assay; format: toxicity, cell-based
[5] = Selectivity index, ratio of IC50 for antiproliferative activity against human MCF-10A cells to IC50 for antiproliferative activity against human MDA-MB-231 cells by MTT assay; format: toxicity, cell-based; conditions: MCF-10A cells versus MDA-MB-231 cells, read-out: Ratio IC50
[6] = target: T1, Estrogen receptor (Homo sapiens) (UniProt P03372); assay: Induction of ERalpha degradation in human MCF7 cells assessed as decrease in ERalpha protein expression at 1 uM incubated for 24 hrs by Western blot analysis; format: cell-based
T1 sequence (whole entry): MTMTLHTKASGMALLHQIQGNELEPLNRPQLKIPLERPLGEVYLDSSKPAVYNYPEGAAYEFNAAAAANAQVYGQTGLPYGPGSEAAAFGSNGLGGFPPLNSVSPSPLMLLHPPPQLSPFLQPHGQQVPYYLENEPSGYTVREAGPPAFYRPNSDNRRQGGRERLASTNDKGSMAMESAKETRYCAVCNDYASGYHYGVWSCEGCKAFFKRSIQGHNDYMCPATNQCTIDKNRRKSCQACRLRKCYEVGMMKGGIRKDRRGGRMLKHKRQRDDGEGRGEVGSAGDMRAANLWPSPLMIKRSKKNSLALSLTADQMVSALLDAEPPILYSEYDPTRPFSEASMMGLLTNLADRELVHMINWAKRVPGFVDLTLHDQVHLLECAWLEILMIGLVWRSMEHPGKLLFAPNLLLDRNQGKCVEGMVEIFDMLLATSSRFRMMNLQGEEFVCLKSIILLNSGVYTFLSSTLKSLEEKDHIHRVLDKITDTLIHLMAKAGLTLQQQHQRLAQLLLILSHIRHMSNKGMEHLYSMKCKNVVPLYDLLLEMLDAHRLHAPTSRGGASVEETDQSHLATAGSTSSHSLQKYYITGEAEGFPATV

SMILES | IC50 (MDA-MB-231) [µM] | IC50 (MCF7 [1]) [µM] | IC50 (MCF7 [2]) [µM] | Ratio IC50 [3] | IC50 at 48 h [4] [µM] | selectivity ratio [5] | Activity [6]
CC1=CC(=O)[C@H]2/C(C=O)=C\C[C@H]3[C@@H]([C@@H](C)/C=C\C=C/C(=O)OCCCCCCCCOC(=O)CC45CC6CC(CC(C6)C4)C5)CC[C@]3(C)C[C@H]12 | 0.69 | 1.76 | 1.49 | 0.85 |  |  | 
CCCCCCCCCOC(=O)/C=C\C=C/[C@H](C)[C@H]1CC[C@]2(C)C[C@@H]3C(C)=CC(=O)[C@H]3/C(C=O)=C\C[C@@H]12 | 0.77 | 2.53 | 1.12 | 0.44 | 4.83 | 1.91 | 
CCCCCCCCOC(=O)/C=C\C=C/[C@H](C)[C@H]1CC[C@]2(C)C[C@@H]3C(C)=CC(=O)[C@H]3/C(C=O)=C\C[C@@H]12 | 0.52 | 1.78 | 0.98 | 0.55 |  |  | 
CC1=CC(=O)[C@H]2/C(C=O)=C\C[C@H]3[C@@H]([C@@H](C)/C=C/C(=O)OCCCCCCCCOC(=O)CC45CC6CC(CC(C6)C4)C5)CC[C@]3(C)C[C@H]12 | 0.75 | 2.87 | 1.91 | 0.67 |  |  | 
CC1=CC(=O)[C@H]2/C(C=O)=C\C[C@H]3[C@@H]([C@@H](C)/C=C/C(=O)OCCOCCOCCOCCOC(=O)CC45CC6CC(CC(C6)C4)C5)CC[C@]3(C)C[C@H]12 | 0.93 | 0.96 | 0.86 | 0.9 |  |  | Active
CCCCOC(=O)/C=C/[C@H](C)[C@H]1CC[C@]2(C)C[C@@H]3C(C)=CC(=O)[C@H]3/C(C=O)=C\C[C@@H]12 | 1.47 | 2.25 | 1.69 | 0.75 |  |  | 
CCCCCCCCCOC(=O)/C=C/[C@H](C)[C@H]1CC[C@]2(C)C[C@@H]3C(C)=CC(=O)[C@H]3/C(C=O)=C\C[C@@H]12 | 0.57 | 1.81 | 0.73 | 0.4 |  |  | 
CCCCCCOC(=O)/C=C\C=C/[C@H](C)[C@H]1CC[C@]2(C)C[C@@H]3C(C)=CC(=O)[C@H]3/C(C=O)=C\C[C@@H]12 | 0.64 | 1.04 | 0.79 | 0.76 | 1.58 | 1.52 | Active
CCCCCCCCOC(=O)/C=C/[C@H](C)[C@H]1CC[C@]2(C)C[C@@H]3C(C)=CC(=O)[C@H]3/C(C=O)=C\C[C@@H]12 | 0.42 | 1.42 | 0.52 | 0.37 | 1.57 | 1.11 | 
CCCCCOC(=O)/C=C\C=C/[C@H](C)[C@H]1CC[C@]2(C)C[C@@H]3C(C)=CC(=O)[C@H]3/C(C=O)=C\C[C@@H]12 | 1.66 | 1.84 | 1.37 | 0.74 |  |  | 
COc1cccc2c1C(=O)c1c(O)c3c(c(O)c1C2=O)C[C@@](O)(C(=O)CO)C[C@@H]3O[C@H]1C[C@H](N)[C@H](O)[C@H](C)O1 [DOXORUBICIN HYDROCHLORIDE] |  |  |  |  | 0.86 |  | 
CCCCCCCCCCOC(=O)/C=C\C=C/[C@H](C)[C@H]1CC[C@]2(C)C[C@@H]3C(C)=CC(=O)[C@H]3/C(C=O)=C\C[C@@H]12 | 0.91 | 1.85 | 1.26 | 0.68 |  |  | 
COCCOCCOCCOC(=O)/C=C\C=C/[C@H](C)[C@H]1CC[C@]2(C)C[C@@H]3C(C)=CC(=O)[C@H]3/C(C=O)=C\C[C@@H]12 | 2.32 | 4.85 | 3.26 | 0.67 |  |  | 
CC1=CC(=O)[C@H]2/C(C=O)=C\C[C@H]3[C@@H]([C@@H](C)/C=C/C(=O)OC45CC6CC(CC(C6)C4)C5)CC[C@]3(C)C[C@H]12 | 0.95 | 0.59 | 0.61 | 1.03 |  |  | Active
CCCCOC(=O)/C=C\C=C/[C@H](C)[C@H]1CC[C@]2(C)C[C@@H]3C(C)=CC(=O)[C@H]3/C(C=O)=C\C[C@@H]12 | 1.37 | 1.45 | 1.86 | 1.28 |  |  | 
CC1=CC(=O)[C@H]2/C(C=O)=C\C[C@H]3[C@@H]([C@@H](C)/C=C\C=C/C(=O)OCCOCCOCCOCCOC(=O)CC45CC6CC(CC(C6)C4)C5)CC[C@]3(C)C[C@H]12 | 1.01 | 1.26 | 2.03 | 1.61 |  |  | Active
CCCCCCCOC(=O)/C=C/[C@H](C)[C@H]1CC[C@]2(C)C[C@@H]3C(C)=CC(=O)[C@H]3/C(C=O)=C\C[C@@H]12 | 0.97 | 2.19 | 1.28 | 0.58 |  |  | 
CC1=CC(=O)[C@H]2/C(C=O)=C\C[C@H]3[C@@H]([C@@H](C)/C=C/C(=O)OCCOCCOC(=O)CC45CC6CC(CC(C6)C4)C5)CC[C@]3(C)C[C@H]12 | 0.77 | 1.04 | 1.11 | 1.07 |  |  | 
CC1=CC(=O)[C@H]2/C(C=O)=C\C[C@H]3[C@@H]([C@@H](C)/C=C\C=C/C(=O)OCCOCCOC(=O)CC45CC6CC(CC(C6)C4)C5)CC[C@]3(C)C[C@H]12 | 0.54 | 0.69 | 0.87 | 1.26 | 2.4 | 3.48 | Active
CCCCCCCOC(=O)/C=C\C=C/[C@H](C)[C@H]1CC[C@]2(C)C[C@@H]3C(C)=CC(=O)[C@H]3/C(C=O)=C\C[C@@H]12 | 0.69 | 1.38 | 0.94 | 0.68 |  |  | Active
CC1=CC(=O)[C@H]2/C(C=O)=C\C[C@H]3[C@@H]([C@@H](C)/C=C\C=C/C(=O)OC45CC6CC(CC(C6)C4)C5)CC[C@]3(C)C[C@H]12 | 1.08 | 1.08 | 1.04 | 0.96 |  |  | Active
CCCCCCCCCCOC(=O)/C=C/[C@H](C)[C@H]1CC[C@]2(C)C[C@@H]3C(C)=CC(=O)[C@H]3/C(C=O)=C\C[C@@H]12 | 0.3 | 1.66 | 1.03 | 0.62 | 2.16 | 1.3 | 
CCCCCCOC(=O)/C=C/[C@H](C)[C@H]1CC[C@]2(C)C[C@@H]3C(C)=CC(=O)[C@H]3/C(C=O)=C\C[C@@H]12 | 0.86 | 1.84 | 1.63 | 0.89 |  |  | 
CC1=CC(=O)[C@H]2/C(C=O)=C\C[C@H]3[C@@H]([C@@H](C)/C=C\C=C/C(=O)OCCCOC(=O)CC45CC6CC(CC(C6)C4)C5)CC[C@]3(C)C[C@H]12 | 0.44 | 1.45 | 0.96 | 0.66 |  |  | 
CC1=CC(=O)[C@H]2/C(C=O)=C\C[C@H]3[C@@H]([C@@H](C)/C=C\C=C/C(=O)OCCOCCOOC(=O)CC45CC6CC(CC(C6)C4)C5)CC[C@]3(C)C[C@H]12 | > 10 | > 10 | > 10 |  |  |  | 
CC1=CC(=O)[C@H]2/C(C=O)=C\C[C@H]3[C@@H]([C@@H](C)/C=C/C(=O)OCCCOC(=O)CC45CC6CC(CC(C6)C4)C5)CC[C@]3(C)C[C@H]12 | 0.29 | 1.82 | 0.7 | 0.38 |  |  | 
CCCCCOC(=O)/C=C/[C@H](C)[C@H]1CC[C@]2(C)C[C@@H]3C(C)=CC(=O)[C@H]3/C(C=O)=C\C[C@@H]12 | 2.41 | 2.95 | 1.98 | 0.67 |  |  | 
CC1=CC(=O)[C@H]2/C(C=O)=C\C[C@H]3[C@@H]([C@@H](C)/C=C/C(=O)OCCOCCOCCOC(=O)CC45CC6CC(CC(C6)C4)C5)CC[C@]3(C)C[C@H]12 | 0.73 | 1.04 | 1.15 | 1.11 |  |  | Active
COCCOCCOCCOC(=O)/C=C/[C@H](C)[C@H]1CC[C@]2(C)C[C@@H]3C(C)=CC(=O)[C@H]3/C(C=O)=C\C[C@@H]12 | 3.16 | 3.79 | 2.26 | 0.6 |  |  | 
